Data: patent US9668473B2, “Process for obtaining biopolymeric nanoparticles containing Azadirachta indica A. Juss. (neem.) oil and extracts, biopolymeric nanoparticles, and powder microparticles” (priority 2013, dated 2017)
Read-outs that look alike come from different tables or passages of the source.

Legend:
[1] = cited from earlier work
[2] = type: physicochemical
Description: Reproducibility, Resistance, Recovery, and Storage Stability
Azadirachtin solutions stores at 4° C. were considered stable.

[3] = Azadirachtin solubility and dispersion capability in aqueous phase; type: physicochemical
From the text: This value represents an azadirachtin dispersion capability 13 times greater than its solubility. That is, it is possible to prepare a new formulation for applying Neem extracts and oil with high azadirachtin contents, whereas the surfactant content is kept low (Tween®80=0.5% m/v). It should be clear for those skilled in the art that this value represents a non-limiting example; greater dispersion capabilities are fairly possible according to the extract content used.

Q: Which azadirachtin activity ([1]; after 4 hours of sunlight exposure) does the source give for `C/C=C(\C)C(=O)O[C@H]1C[C@@H](OC(C)=O)[C@@]2(C(=O)OC)CO[C@H]3[C@@H](O)[C@@](C)([C@]45O[C@@]4(C)[C@H]4C[C@@H]5O[C@@H]5OC=C[C@@]54O)[C@H]4[C@]1(CO[C@]4(O)C(=O)OC)[C@@H]32` [Azadirachtin, azadirachtin] here?
A: The azadirachtin activity was about 60%.

Q: What about the azadirachtin activity ([1]; after 15 hours of sunlight exposure) of the same compound?
A: The azadirachtin activity was about 50%.

Q: And the storage stability [2]?
A: The storage stability was “stable”.

Q: And the Azadirachtin solubility [3]?
A: The Azadirachtin solubility was 26.0 mg 100 mL^−1.
